Laboratory results: patent US10414789B2, “Compositions comprising cyclic purine dinucleotides having defined stereochemistries and methods for their preparation and use” (ADURO BIOTECH, INC., priority 2012, dated 2019)

Key:
DC2.4 cells = test: IFN-β induction by CDNs in DC2.4 antigen presenting cells (L929-ISRE luciferase reporter readout); assay type: cell-based, mouse; conditions: for relative level of IFN-β induced: DC2.4 cells incubated with 5, 20 and 100 μM CDN for 30 minutes, culture fluids after 4 hours, RLU in L929-ISRE reporter cells, FIG. 7; for level of IFN-β expression compared to c-di-GMP or c-di-AMP: cyclic dinucleotides not incubated with SVPD, 100 μM, DC2.4 cells, FIG. 8
Procedure: To measure the level of induced IFN-β, cell culture fluids from each sample were collected after 4 hours, and 10 μL was added to 5×10^4 L929-ISRE luciferase reporter cells cultured in RPMI media+10% FBS.

TRAMP-C2 tumor cells = test: Anti-tumor efficacy of CDNs formulated with GVAX in a subcutaneous murine prostate cancer model; assay type: in vivo, C57BL/6 mice; conditions: by day 52 post tumor implantation; s.c. vaccination on days 4 and 11; FIG. 12
Procedure: The relative in vivo anti-tumor efficacy of the Rp, Rp dithio c-di-AMP and unmodified c-di-AMP derivatives were evaluated in a subcutaneous mouse model of prostate cancer. The derivative molecules were formulated with 1×10^6 irradiated whole TRAMP-C2 murine prostate tumor cells expressing GM-CSF (GVAX). Groups of 5 male C57BL/6 mice were implanted with 1×10^5 TRAMP-C2 tumor cells subcutaneous in the footpad. On days 4 and 11 post tumor implantation, mice were administered vaccinations subcutaneous in the flank of either GVAX alone, or GVAX formulated with RR-CDA or CDA, and compared to HBSS control. Tumor growth was monitored by calipers, and tumor volume was calculated.

[1] = system: snake venom phosphodiesterase (SVPD); conditions: 1 mg SVPD overnight at 37° C.; then 100 μM on DC2.4 cells; FIG. 8
[2] = system: OVA-specific CD4+ and CD8+ T cell responses; test: OVA-specific CD4+ and CD8+ T cell responses in PBMC by IFN-γ ELISpot after vaccination with OVA/Addavax plus CDN; assay type: in vivo, C57BL/6 mice; conditions: once s.c., PBMC 10 days post vaccination, FIG. 9
Procedure: To test the enhanced in vivo immunogenicity of Rp, Rp dithio c-di-GMP relative to unmodified c-di-GMP molecules, OVA-specific CD4+ and CD8+ T cell responses were measured in PBMCs at 10 days post vaccination in conjunction with CDN treatment. Vaccines were prepared by combining 10 μg of OVA protein (EndoFit OVA, InVivogen) and Addavax (2% squalene final) with either 25 μg or 5 μg of cyclic dinucleotide, in a total volume of 100 μL. Groups of five female C57BL/6 mice (H-2b) were immunized once subcutaneously (s.c) in the base of the tail with the vaccine preparations, and the OVA-specific CD4+ and CD8+ T cell responses in the peripheral blood mononuclear cell (PBMC) compartment were determined by ELISpot analysis 10 days later. 1×10^5 PBMCs and 1×10^5 splenocyte feeder cells isolated from aged-matched naïve C57BL/6 mice were un-stimulated or stimulated with 1 μM of MHC class II peptide (OVA265-280 TEWTSSNVMEERKIKV) or MHC class I (OVA257-264 SIINFEKL) peptide overnight and IFN-γ spot forming cells were measured, as described previously.

[3] = system: SIV gag-specific CD8+ and CD4+ T cell responses; test: SIV gag-specific CD8 and CD4 T cell responses by IFNγ ELISpot after vaccination with SIV gag protein plus CDN; assay type: in vivo, C57BL/6 mice; conditions: 1 ug CDN with 10 ug SIV gag protein in 2% squalene-in-water, s.c. twice 20 days apart, spleens six days after second vaccination; FIG. 10
Procedure: To further assess the immunogenicity of Rp, Rp dithio c-di-GMP relative to unmodified c-di-GMP molecules, SIV gag-specific CD8+ and CD4+ T cell responses were measured. Five C57BL/6 mice per group were immunized subcutaneously twice with either 1 ug Rp, Rp dithio c-di-GMP or saline control formulated in 2% squalene-in-water with 10 ug SIV gag protein. Vaccinations were separated by 20 days, and spleens were harvested six days after the second vaccination. Immune responses were measured to SIV gag-specific CD8 (AL11, SIV gag312-322, A) and CD4 (DD13, SIV gag300-312, B) T cell epitopes by IFNγ ELISpot assay. Plates were scanned and spot forming cells (SFC) per well were enumerated using an ImmunoSpot analyzer (CTL).

[4] = system: OVA257-specific CD8 T cell responses; test: OVA-specific CD8 T cell memory and expansion in PBMC by intracellular cytokine staining after prime-boost vaccination; assay type: in vivo, C57BL/6 mice
Procedure: (§1) To establish the enhanced immunogenicity and accompanying protective immunity induced by Rp, Rp dithio c-di-GMP relative to unmodified c-di-GMP, OVA-specific CD8 T cell responses measured in PBMC and protective immunity assessed against lethal bacterial challenge. Vaccines were prepared by combining 10 μg of OVA protein (EndoFit OVA, InVivogen) and Addavax (2% squalene final) with 25 μg of cyclic dinucleotide, in a total volume of 100 μL. Groups of five female C57BL/6 mice (H-2^b) were immunized twice subcutaneously (s.c) in the base of the tail with the vaccine preparations. The interval between the prime and boost immunizations was 36 days. The magnitude of both the memory and expansion phases of the OVA257-specific CD8 T cell responses in PBMC were quantified by intracellular cytokine staining (ICS) analysis at both 27 days post-boost vaccination and at 3 days post challenge with a 2× lethal dose (LD)50 dose (1×10^5 colony forming units; CFU) of OVA-expressing wild-type Listeria monocytogenes (WT Lm-OVA). For ICS analysis, 1×10^5 PBMCs from test mice combined with 1×10^5 splenocyte feeder cells isolated from aged-matched naïve C57BL/6 mice were un-stimulated or stimulated with 1 μM of MHC class I peptide (OVA257-264 SIINFEKL) for 5 hrs. in the presence of Brefeldin A, and IFN-γ production was measured by flow cytometry on a BD FACSVerse.

[5] = system: OVA-expressing wild-type Listeria monocytogenes (WT Lm-OVA); test: Protective immunity against lethal WT Lm-OVA challenge (spleen CFU); assay type: in vivo, C57BL/6 mice; conditions: i.v. 2×LD50 (1×10^5 CFU) WT Lm-OVA at 27 days post boost; spleens 3 days later; FIG. 11C
Procedure: as §1, with “FACSVerse. […]” for “FACSVerse.”

[6] = system: THP1-Blue human monocytes; test: IFN-β induction in THP1-Blue human monocytes (IRF-inducible SEAP reporter); assay type: cell-based; conditions: FIG. 15
Procedure: To determine the relative potency of the prodrug form of c-di-GMP to activate the innate immune response, relative levels of IFN-β induced in a human monocyte cell line were assessed. […] Cell culture supernatants from each sample were collected after 4 hours. 10 μL of the cell culture supernatants was added to QUANTI-Blue reagent (Invivogen) and incubated for 15-30 minutes. Absorbance at 655 nm was measured using a Model 680 spectrophotometer (BioRad).

[7] = system: OVA-specific CD8+ T cell responses; test: OVA-specific CD8 T cell responses in splenocytes by intracellular cytokine staining after vaccination with CDN prodrug; assay type: in vivo, C57BL/6 mice; conditions: 5 μg CDN prodrug with 10 μg OVA and Addavax, s.c. twice, splenocytes 7 days post second vaccination; FIG. 16
Procedure: To assess the ability of the mono-2′-O-myristoyl c-di-GMP (“mono-2′-O-myristoyl CDG”) derivative to induce in vivo immune responses, OVA-specific CD8 T cell responses were measured in splenocytes at 7 days post second vaccination in conjunction with CDN treatment. To test the ability of mono-2′-O-myristoyl c-di-GMP relative to stimulate an OVA-specific immune responses, vaccines were prepared by combining 10 μg of OVA protein (EndoFit OVA, Invivogen) and Addavax (2% squalene final) with either 0 (Control) or 5 μg of mono-2′-O-myristoyl c-di-GMP derivative (“mono-2′-O-myristoyl CDG”), in a total volume of 100 μL. Groups of five female C57BL/6 mice (H-2b) were immunized twice subcutaneously (s.c) in the base of the tail with the vaccine preparations, and the OVA-specific CD8+ T cell responses in the spleens were determined by intracellular cytokine staining 7 days later. 1×10^6 splenocytes were unstimulated or stimulated with 1 μM of MHC class I (OVA257-264 SIINFEKL; SL8) peptide overnight and IFN-γ production was measured by flow cytometer on a BD FACSVerse.

Nc1ncnc2c1ncn2C1OC2COP(=O)(S)OC3C(COP(=O)(S)OC2C1O)OC(n1cnc2c(N)ncnc21)C3O (stereo not drawn) [Rp, Rp dithio c-di-AMP, dithio [Rp,Rp] c-di-AMP]
relative level of IFN-β induced (DC2.4 cells): induced significantly higher levels of IFN-β than either the c-di-GMP or c-di-AMP unmodified cyclic dinucleotide molecules
level of IFN-β expression compared to c-di-GMP or c-di-AMP (DC2.4 cells): greater
anti-tumor efficacy compared to GVAX alone or GVAX formulated with unmodified c-di-AMP (TRAMP-C2 tumor cells): increased anti-tumor potency
level of IFN-β expression after incubation of the CDN with SVPD versus without SVPD [1]: equivalent

Nc1nc2c(ncn2[C@@H]2O[C@@H]3CO[P@@](=O)(S)O[C@H]4[C@@H](O)[C@H](n5cnc6c(=O)[nH]c(N)nc65)O[C@@H]4CO[P@@](=O)(S)O[C@H]3[C@H]2O)c(=O)[nH]1 [Rp, Rp dithio c-di-GMP, dithio [Rp,Rp] c-di-GMP]
relative level of IFN-β induced (DC2.4 cells): induced significantly higher levels of IFN-β than either the c-di-GMP or c-di-AMP unmodified cyclic dinucleotide molecules
level of IFN-β expression compared to c-di-GMP or c-di-AMP (DC2.4 cells): greater
magnitude of antigen-specific CD8+ T cell responses compared to 5 μg or 25 μg of unmodified c-di-GMP ([2]; 5 μg CDN): greater
CD4+ and CD8+ OVA-specific T cell responses compared to unmodified c-di-GMP ([2]; same amount of CDN adjuvant (25 μg or 5 μg)): of greater magnitude
SIV gag-specific CD8 and CD4 T cell responses compared to saline control [3]: significantly higher
OVA-specific CD8 T cell memory compared to unmodified c-di-GMP adjuvanted vaccines ([4]; 25 μg CDN, s.c. prime and boost 36 days apart, PBMC 27 days post-boost, FIG. 11A): higher magnitude of OVA-specific CD8 T cell memory
expansion of OVA-specific memory CD8 T cells following challenge, compared to unmodified c-di-GMP adjuvanted vaccines ([4]; 3 days post challenge with 2× LD50 WT Lm-OVA, FIG. 11A): expanded to a higher magnitude
magnitude of OVA-specific CD8 T cell memory ([4]; FACS plot, FIG. 11B, 25 μg CDN adjuvanted vaccine): ~30 % of the total CD8 T cell population in PBMC
protection against virulent pathogen challenge (spleen colonies) [5]: complete protection (below the limit of detection, LOD)
IFN-β induction compared to Rp, Sp dithio c-di-GMP and unmodified c-di-GMP ([6]; human monocyte cell line): superior induction
level of IFN-β expression after incubation of the CDN with SVPD versus without SVPD [1]: equivalent

Nc1ncnc2c1ncn2C1OC2COP(=O)(S)OC3C(COP(=O)(S)OC2C1O)OC(n1cnc2c(N)ncnc21)C3O (stereo not drawn) [Rp, Sp dithio c-di-AMP, dithio [Rp,Sp] c-di-AMP]
relative level of IFN-β induced (DC2.4 cells): lower than the level induced by both the Rp, Rp dithio c-di-GMP and the Rp, Rp dithio c-di-AMP diastereomers as well as the native c-di-GMP and c-di-AMP molecules

Nc1nc2c(ncn2[C@@H]2O[C@@H]3CO[P@@](O)(=S)O[C@H]4[C@@H](O)[C@H](n5cnc6c(=O)[nH]c(N)nc65)O[C@@H]4CO[P@](O)(=S)O[C@H]3[C@H]2O)c(=O)[nH]1 [Rp, Sp dithio c-di-GMP, dithio [Rp,Sp] c-di-GMP]
relative level of IFN-β induced (DC2.4 cells): lower than the level induced by both the Rp, Rp dithio c-di-GMP and the Rp, Rp dithio c-di-AMP diastereomers as well as the native c-di-GMP and c-di-AMP molecules

Nc1ncnc2c1ncn2[C@@H]1O[C@@H]2COP(=O)(O)O[C@H]3[C@@H](O)[C@H](n4cnc5c(N)ncnc54)O[C@@H]3COP(=O)(O)O[C@H]2[C@H]1O [c-di-AMP, reference compound]
level of IFN-β expression after incubation of the CDN with SVPD versus without SVPD [1]: significantly lower

Nc1nc2c(ncn2[C@@H]2O[C@@H]3COP(=O)(O)O[C@H]4[C@@H](O)[C@H](n5cnc6c(=O)[nH]c(N)nc65)O[C@@H]4COP(=O)(O)O[C@H]3[C@H]2O)c(=O)[nH]1 [c-di-GMP, reference compound]
level of IFN-β expression after incubation of the CDN with SVPD versus without SVPD [1]: significantly lower

CCCCCCCCCCCCCC(=O)OC1C2OP(=O)(O)OCC3OC(n4cnc5c(=O)[nH]c(N)nc54)C(O)C3OP(=O)(O)OCC2OC1n1cnc2c(=O)[nH]c(N)nc21 (stereo not drawn) [mono-2′-O-myristoyl c-di-GMP]
levels of IFN-β induced compared to unmodified c-di-GMP and background (HBSS) ([6]; 100 μM for 30 minutes, supernatants after 4 hours, absorbance at 655 nm): significantly higher levels of IFN-β
OVA-specific CD8 T cell immune responses compared to Control vaccines [7]: greater immune responses
